Measured values from the supplement of paper PMC13207355.

Columns and labels:
Conditions in all cases: exposure time: 72 h
[1] = tested on: E21 (patient-derived glioblastoma stem cells of mesenchymal subtype); assay: phenotypic distance (Euclidean, principal components) from DMSO controls (arbitrary units); higher = stronger morphological change
[2] = tested on: E28 (patient-derived glioblastoma stem cells of classical subtype); assay: as above
[3] = tested on: E31 (patient-derived glioblastoma stem cells of proneural subtype); assay: as above
[4] = tested on: E57 (patient-derived glioblastoma stem cells of mesenchymal subtype); assay: as above
[5] = tested on: FT3469 (normal neural stem cell line); assay: as above
[6] = tested on: E13 (patient-derived glioblastoma stem cells of classical subtype); assay: as above
[7] = tested on: E34 (patient-derived glioblastoma stem cells of proneural subtype); assay: as above
[8] = tested on: E21; assay: surviving fraction (nuclei count normalised to DMSO); higher = more cells surviving (less toxic)
[9] = tested on: E28; assay: as above
[10] = tested on: E31; assay: as above
[11] = tested on: E57; assay: as above
[12] = tested on: FT3469; assay: as above
[13] = tested on: E13; assay: as above
[14] = tested on: E34; assay: as above
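Wherever phenotypic distance (Euclidean, principal components) from DMSO controls is given: cell Painting imaging in 384-well plates, CellProfiler features reduced to at least 20 principal components, Euclidean distance versus same-plate DMSO vehicle wells (0.1% v/v), median over six images per well.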
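Wherever surviving fraction (nuclei count normalised to DMSO) is given: nuclei counted by high-content imaging of Hoechst-stained cells in laminin-coated 384-well plates, relative to 0.1% DMSO vehicle wells, with staurosporine as cell-death control.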

CC1(C(=O)O)C2CCC(O2)C1(C)C(=O)O (stereo not drawn) [Cantharidic Acid]
Conditions	phenotypic distance	surviving fraction
[1], 4.1 nM	0.625	–
[1], 12.3 nM	0.711	–
[1], 37 nM	1.21	–
[1], 111.1 nM	0.773	–
[1], 333.3 nM	0.585	–
[1], 1000 nM	0.482	–
[1], 3000 nM	2.17	–
[2], 4.1 nM	0.917	–
[2], 12.3 nM	0.654	–
[2], 37 nM	0.463	–
[2], 111.1 nM	0.528	–
[2], 333.3 nM	0.599	–
[2], 1000 nM	0.909	–
[2], 3000 nM	2.54	–
[3], 4.1 nM	1.05	–
[3], 12.3 nM	0.816	–
[3], 37 nM	1.07	–
[3], 111.1 nM	1.09	–
[3], 333.3 nM	0.68	–
[3], 1000 nM	0.624	–
[3], 3000 nM	1.67	–
[4], 4.1 nM	0.632	–
[4], 12.3 nM	0.322	–
[4], 37 nM	0.414	–
[4], 111.1 nM	0.564	–
[4], 333.3 nM	0.544	–
[4], 1000 nM	0.751	–
[4], 3000 nM	1.72	–
[5], 4.1 nM	1.06	–
[5], 12.3 nM	0.717	–
[5], 37 nM	0.644	–
[5], 111.1 nM	0.683	–
[5], 333.3 nM	0.991	–
[5], 1000 nM	0.653	–
[5], 3000 nM	2.25	–
[6], 4.1 nM	0.746	–
[6], 12.3 nM	0.673	–
[6], 37 nM	0.774	–
[6], 111.1 nM	0.872	–
[6], 333.3 nM	0.83	–
[6], 1000 nM	0.671	–
[6], 3000 nM	2.26	–
[7], 4.1 nM	1.38	–
[7], 12.3 nM	1.36	–
[7], 37 nM	1.46	–
[7], 111.1 nM	1.49	–
[7], 333.3 nM	1.07	–
[7], 1000 nM	0.864	–
[7], 3000 nM	3.29	–
[8], 4.1 nM	–	0.955
[8], 12.3 nM	–	0.853
[8], 37 nM	–	1.11
[8], 111.1 nM	–	1
[8], 333.3 nM	–	1.03
[8], 1000 nM	–	0.954
[8], 3000 nM	–	0.922
[9], 4.1 nM	–	0.901
[9], 12.3 nM	–	1.05
[9], 37 nM	–	0.971
[9], 111.1 nM	–	1.07
[9], 333.3 nM	–	1.11
[9], 1000 nM	–	1.15
[9], 3000 nM	–	0.771
[10], 4.1 nM	–	1.07
[10], 12.3 nM	–	1
[10], 37 nM	–	1.16
[10], 111.1 nM	–	1.05
[10], 333.3 nM	–	1.04
[10], 1000 nM	–	1.08
[10], 3000 nM	–	0.683
[11], 4.1 nM	–	0.985
[11], 12.3 nM	–	0.996
[11], 37 nM	–	0.944
[11], 111.1 nM	–	1.03
[11], 333.3 nM	–	1.04
[11], 1000 nM	–	1.03
[11], 3000 nM	–	0.947
[12], 4.1 nM	–	0.889
[12], 12.3 nM	–	0.855
[12], 37 nM	–	1.07
[12], 111.1 nM	–	1.03
[12], 333.3 nM	–	1
[12], 1000 nM	–	1.06
[12], 3000 nM	–	0.777
[13], 4.1 nM	–	0.839
[13], 12.3 nM	–	0.973
[13], 37 nM	–	0.995
[13], 111.1 nM	–	1.11
[13], 333.3 nM	–	0.921
[13], 1000 nM	–	1.02
[13], 3000 nM	–	0.939
[14], 4.1 nM	–	0.916
[14], 12.3 nM	–	1.08
[14], 37 nM	–	0.914
[14], 111.1 nM	–	1.1
[14], 333.3 nM	–	1.22
[14], 1000 nM	–	1.06
[14], 3000 nM	–	0.832
